From paper PMC11442653, “Treating ICB-resistant cancer by inhibiting PD-L1 via DHHC3 degradation induced by cell penetrating peptide-induced chimera conjugates” (Cell Death & Disease, 2024) come the findings set out here.

Test [1] deals with 4T1 cells. Nature of the test: Activity against ICB-resistant 4T1 tumors in vitro (PD-L1 blockers). It counts as cell-based, mouse.
For test [2], the system named is 4T1 cells. Briefly: 4T1 xenograft model in BALB/c mice, antitumor effect. It counts as in vivo, mouse.
Description: Female BALB/c mice, aged 6–8 weeks and weighing approximately 20 g were procured from the Wuhan Experimental Animal Center, Hubei, China. In vivo studies assessing antitumor effects were performed according to the protocols of the Experimental Animal Welfare and Ethics Committee at Wuhan University. These studies complied with the National Research Council’s guidelines detailed in the “Guide for the Care and Use of Laboratory Animals.” Cells were harvested in an optimal growth phase with approximately 80% confluence, centrifuged to discard the supernatant, and 2 million 4T1 cells were resuspended in 125 µL of PBS. This cell suspension was subcutaneously injected into the dorsal flank of mice to initiate the tumor model. Tumor dimensions were regularly measured using calipers, and the volume was calculated using the following formula: (length × width²)/2. When the tumor volume was 80–100 mm³, the tumor-bearing mice were allocated for further in vivo investigation. […] The treatments were administered via tail vein injections on days 0, 2, 4, 6, 8, 10, and 12. Throughout the experiment, both the weight of the mice and tumor volume were recorded. On day 18, the mice were euthanized via cervical dislocation. The tumors were excised for measurement, photographic documentation, and weighing.
Test [3] has as its system C33A cells. Nature of the test: Ki67 proliferation assay with cisplatin. It counts as cell-based, human. As to conditions: cisplatin vs control.
Test [4] deals with C33A cells. Nature of the test: Colony formation assay with cisplatin. The test is classed as cell-based, human. As to conditions: vs control; 4 h treatment, then 7 days. The method, then: The procedure commenced by counting and seeding cancer cells into a 6-well plate, with each well containing approximately 1000 cells. Following complete cell adhesion, various treatments were applied to each well, including a control PBS solution, cisplatin alone, and a combination of cisplatin and PCC16. This was followed by a 4-h incubation period. Subsequently, the initial culture medium was discarded, and the cells were incubated for additional 7 days in a fresh complete medium, which was renewed every 2–3 days. The cultivation process was halted on the formation of visible colonies detectable under a microscope, with each colony comprising approximately 60–80 cells. Double washing with PBS was conducted, followed by a 20-min fixation of the cells using a tissue cell fixative. After fixation, the cells were washed twice with PBS and stained with 0.1% crystal violet for 20 min. After rinsing the excess stain with deionized water, the plates were air-dried at ambient temperature. The colonies were photographed for documentation, and the cell colony counts in each treatment group was recorded.

In test [5] the test system is C33A cells. Briefly: TUNEL apoptosis assay with cisplatin. It counts as cell-based, human. As to conditions: cisplatin vs control. The method, then: Cells were seeded in 6-well plates at a density between 30% and 50%. Following complete adhesion, various treatments were applied: PBS alone, cisplatin, or a combination of cisplatin and PCC16 for 4 h each. After incubation, the medium was replaced and the cells were rinsed with PBS. The cells were fixed with 4% paraformaldehyde for half an hour and washed again with PBS. To permeabilize the cells, PBS mixed with 0.3% Triton X-100 was added and the cells were incubated at room temperature for 5 min. A specific quantity of the terminal deoxynucleotidyl transferase dUTP nick end labeling (TUNEL) assay reagent was prepared and mixed. After washing the cells on coverslips with PBS twice, 50 µL of the TUNEL reagent was applied to each cell sample. These samples were then incubated at 37 °C in a dark environment for 60 min. The samples were then washed three times with PBS and stained with DAPI for 3–5 min, followed by washing with PBS twice. The final step involved mounting the samples for observation under a fluorescence microscope using an excitation wavelength range of 450–500 nm and an emission wavelength range of 515–565 nm to detect green fluorescence.

The structures appear in SMILES notation.

With `Cc1c(COc2ccc(CN3CCCCC3C(=O)O)cc2Br)cccc1-c1ccccc1` (stereo not shown) [BMS-8], in the test on 4T1 cells [1], the “effect on ICB-resistant tumors in vitro” value was “no significant effect on ICB-resistant tumors”. Moreover, the “effect on ICB-resistant tumors in vivo” value in the test with 4T1 cells [2] (4T1) is listed as “no significant effect on ICB-resistant tumors”. Also, the “average tumor weight, percent of control group” value in the test with 4T1 cells [2] (4T1 xenograft, BALB/c mice, tail vein days 0, 2, 4, 6, 8, 10, 12, n = 4) amounted to 90.8%. Besides, the “tumor weight and size” value in the test on 4T1 cells [2] (4T1 xenograft, vs control, n = 4) is “slight decrease in weight and size”.
As to `N.N.[Cl][Pt][Cl]` [cisplatin], the “cell proliferation (Ki67)” value in the test with C33A cells [3] is given as “cell proliferation decreased”. Besides, in the test on C33A cells [4], the “number of C33A colonies” value was “decreased”. Besides, in the test with C33A cells [5], the apoptosis result is “apoptosis increased”.
